Data as given in PMC8312697, “Mechanistic Investigations Support Liver Safety of Ubrogepant” (Toxicological Sciences, 2020).

Key:
MRP4 = target: T1, MRP4 (Homo sapiens, UniProt O15439); assay: MRP4 vesicular transport inhibition assay; format: biochemical; details: for inhibition of MRP4-mediated probe substrate transport: vesicular transport inhibition assay
T1 construct: Solvo Biotechnology (Szeged, Hungary), contract laboratory that ran the assay
T1 sequence (O15439 1-1325): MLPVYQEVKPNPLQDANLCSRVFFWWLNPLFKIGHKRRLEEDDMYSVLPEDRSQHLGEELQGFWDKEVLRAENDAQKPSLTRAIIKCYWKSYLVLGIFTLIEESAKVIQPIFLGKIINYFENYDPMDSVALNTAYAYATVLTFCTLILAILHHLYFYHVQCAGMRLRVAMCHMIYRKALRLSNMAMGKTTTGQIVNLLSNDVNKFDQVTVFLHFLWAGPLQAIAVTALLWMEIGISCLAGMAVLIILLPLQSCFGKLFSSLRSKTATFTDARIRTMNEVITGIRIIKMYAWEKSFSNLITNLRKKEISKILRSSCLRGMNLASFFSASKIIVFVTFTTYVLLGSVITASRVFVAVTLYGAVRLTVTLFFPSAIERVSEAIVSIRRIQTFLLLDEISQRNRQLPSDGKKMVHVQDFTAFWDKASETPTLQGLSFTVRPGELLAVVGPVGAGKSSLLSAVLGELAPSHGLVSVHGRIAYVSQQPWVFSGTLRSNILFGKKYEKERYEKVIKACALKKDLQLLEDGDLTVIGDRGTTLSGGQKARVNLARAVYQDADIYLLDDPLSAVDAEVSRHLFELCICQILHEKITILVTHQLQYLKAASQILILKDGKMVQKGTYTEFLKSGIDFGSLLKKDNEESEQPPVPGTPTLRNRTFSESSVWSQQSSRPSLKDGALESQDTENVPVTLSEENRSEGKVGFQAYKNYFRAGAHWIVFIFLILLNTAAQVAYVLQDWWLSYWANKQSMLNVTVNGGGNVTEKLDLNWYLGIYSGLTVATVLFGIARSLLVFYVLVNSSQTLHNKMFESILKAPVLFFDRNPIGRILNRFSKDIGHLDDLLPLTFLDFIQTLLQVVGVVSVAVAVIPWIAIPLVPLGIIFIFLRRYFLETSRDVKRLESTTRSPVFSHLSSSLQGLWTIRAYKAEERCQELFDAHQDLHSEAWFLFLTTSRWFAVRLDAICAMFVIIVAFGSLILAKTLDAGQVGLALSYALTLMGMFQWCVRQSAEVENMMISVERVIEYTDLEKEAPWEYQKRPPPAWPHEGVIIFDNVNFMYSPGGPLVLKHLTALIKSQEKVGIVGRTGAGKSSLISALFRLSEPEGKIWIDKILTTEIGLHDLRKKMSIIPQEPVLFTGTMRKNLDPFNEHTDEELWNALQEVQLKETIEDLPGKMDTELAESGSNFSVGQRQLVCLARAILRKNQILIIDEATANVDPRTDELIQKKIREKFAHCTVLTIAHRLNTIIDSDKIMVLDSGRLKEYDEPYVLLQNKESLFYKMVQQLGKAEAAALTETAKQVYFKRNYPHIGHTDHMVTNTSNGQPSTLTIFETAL
Experimental: To assess the functional impact of ubrogepant on the human ABC efflux transporters BSEP, MRP3, and MRP4, in vitro vesicular transport inhibition assays were conducted by Solvo Biotechnology (Szeged, Hungary). The ability of ubrogepant to inhibit the BSEP-mediated transport (and accumulation) of a probe substrate was tested at concentrations ranging from 0.04 – 30 μM, where the latter defined the upper limit of compound solubility in the BSEP assay buffer. For the MRP3 and MRP4 vesicle-based transporter assessments, ubrogepant concentrations of 0.1 to 70 μM were used. To assess the functional impact of ubrogepant on the human SLC (uptake) transporter NTCP, in vitro experiments were performed using HEK293 cells stably expressing NTCP. The ability of ubrogepant to inhibit NTCP-mediated uptake (and accumulation) of taurocholate was tested at concentrations ranging from 0.04 – 30 μM.
To assess the functional impact of MK-3207 on the human ABC efflux transporters BSEP, MRP3 and MRP4, in vitro vesicular transport inhibition assays were conducted by Solvo Biotechnology (Szeged, Hungary) and overseen by DSSI. BSEP transport was assessed in the presence of 0.5-30 µM MK-3207; MRP3 and MRP4 transport was assessed in the presence of 0.11-80 µM MK-3207. The upper limits of these ranges were determined by compound solubility in each assay buffer. NTCP transporter inhibition was assessed in NTCP-expressing HEK293 cells in the presence of 0.03 – 25 µM MK-3207.
IC50 values for MK-3207 were calculated for each of the transporters; these values were used as inputs into DILIsym. It was assumed that inhibition type for MK-3207 for MRP3 and MRP4 was mixed with α= 5; this is a typical value for bile acid transporter inhibitors in the experience of the DSS team.

HepG2 cells = assay: Seahorse cellular respiration assay (OCR); format: cell-based, human
Experimental: Identical parallel cultures were established to test for an effect on cytotoxicity via cellular ATP content. […]. Importantly, the 1-hour culture was conducted in the absence of serum (i.e., no serum protein binding) as is standard for the Seahorse Analyzer assay conditions. However, the 24-hour culture was too long for robust cell culture in the absence of serum. Serum was present up to 1 hour before the assay, when cell culture media was exchanged for the standard assay media. Three independent studies were conducted in duplicate.
To assess the potential mitochondrial liabilities of ubrogepant, cellular respiration assays using a Seahorse XFe96 Flux Analyzer were conducted by Cyprotex (Macclesfield, UK). HepG2 cells were incubated with ubrogepant at concentrations ranging from 0.1 – 125 μM for 1 or 24 hours and tested for an effect on cellular respiration as measured by the oxygen consumption rate (OCR). Three independent studies were conducted in duplicate. Importantly, the 1-hour culture was conducted in the absence of serum (i.e., no serum protein binding) as is standard for the Seahorse Analyzer assay conditions. However, the 24-hour culture was too long for robust cell culture in the absence of serum. Serum was present up to 1 hour before the assay, when cell culture media was exchanged for the standard assay media. The measured OCR was corrected for the relative amounts of viable cells that contributed to the measured OCR, removing the possible interpretation of OCR reductions as being due to cell loss.
To assess the potential mitochondrial liabilities of MK-3207, cellular respiration assays using a Seahorse XFe96 Flux Analyzer were conducted by Cyprotex (Macclesfield, UK). HepG2 cells were incubated with MK-3207 at concentrations ranging from 0.01 – 75 μM for 1 or 24 hours and tested for an effect on cellular respiration as measured by the OCR. Three independent studies were conducted in duplicate. Importantly, the 1-hour culture was conducted in the absence of serum (i.e., no serum protein binding) as is standard for the Seahorse Analyzer assay conditions. However, the 24-hour culture was too long for robust cell culture in the absence of serum. Serum was present up to 1 hour before the assay, when cell culture media was exchanged for the standard assay media. Intracellular MK-3207 concentrations were also assessed in identical duplicate HepG2 cultures. The measured OCR was corrected for the relative amounts of viable cells that contributed to the measured OCR, removing the possible interpretation of OCR reductions as being due to cell loss; the process for this was the same as that described above for ubrogepant.

[1] = HepG2, 1-hour incubation, no serum

SMILES	inhibition of MRP4-mediated probe substrate transport (MRP4)	effect on oxygen consumption rate (OCR) (HepG2 cells; [1])	effect on oxygen consumption rate (OCR) (HepG2 cells; HepG2, 24-hour incubation)	inhibition at 70 µM (MRP4; human, membrane vesicles with MRP4 (vesicular transport assay), 70 µM (solubility limit), read-out: maximum inhibition at the highest concentration tested, MRP4) [%]	IC50 (MRP4; curve fitting assuming maximum inhibition at higher concentrations is 100%, read-out: MRP4 estimated lowest possible IC50) [µM]	inhibition at 20 µM (MRP4; human, membrane vesicles with MRP4 (vesicular transport assay), read-out: maximum inhibition at the highest concentration tested, MRP4) [%]
O=C(CN1C(=O)C2(CCCC2)NC[C@H]1c1cc(F)cc(F)c1)Nc1ccc2c(c1)C[C@@]1(C2)C(=O)Nc2ncccc21 [MK-3207]	No inhibition was observed	mildly inhibit cellular respiration	mildly inhibit cellular respiration	–	–	–
C[C@@H]1[C@H](c2ccccc2)C[C@H](NC(=O)c2cnc3c(c2)C[C@@]2(C3)C(=O)Nc3ncccc32)C(=O)N1CC(F)(F)F [Ubrogepant]	did not inhibit MRP4	not after a 1-hour incubation	inhibit the HepG2 OCR in a dose-dependent manner	< 50	–	–
O=C(N[C@@H]1CC[C@@H](c2cccc(F)c2F)CN(CC(F)(F)F)C1=O)N1CCC(n2c(=O)[nH]c3ncccc32)CC1 [Telcagepant]	inhibited	inhibit the HepG2 OCR in a dose-dependent manner	A similar OCR response	–	≥ 16.9	< 50
